Consider 7 compounds from PMC5433438 (Bioorganic & Medicinal Chemistry, 2015).

The experiment addresses HKU4-CoV 3CL^pro (Bat coronavirus HKU4, UniProt P0C6W3). Format: biochemical, Tylonycteris bat coronavirus HKU4.

SMILES strings stand for the structures.

HKU4-CoV 3CL^pro, sequence (P0C6W3 3292-3597 limits assumed): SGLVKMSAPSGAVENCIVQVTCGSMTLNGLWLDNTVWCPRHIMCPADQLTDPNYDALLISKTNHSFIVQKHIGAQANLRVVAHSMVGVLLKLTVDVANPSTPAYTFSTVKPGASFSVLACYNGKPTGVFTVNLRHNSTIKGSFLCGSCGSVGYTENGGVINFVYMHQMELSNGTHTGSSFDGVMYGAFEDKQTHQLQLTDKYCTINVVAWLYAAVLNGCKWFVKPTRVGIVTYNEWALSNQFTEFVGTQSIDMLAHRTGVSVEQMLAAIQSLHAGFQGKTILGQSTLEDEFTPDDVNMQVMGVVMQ

With `O=C(Nc1ccc(N(Cc2ccsc2)C(=O)Cn2nnc3ccccc32)cc1)c1cccs1` [1A], the “IC50 (μM)” value is on record as “sub-micromolar”. With `O=C(Nc1ccc(N(Cc2ccsc2)C(=O)Cn2nnc3ccccc32)cc1)c1ccccc1` [2A], the “IC50 (μM)” value is on record as “sub-micromolar”. Consider `CC(=O)Nc1ccc(N(C(=O)Cn2nnc3ccccc32)C(C(=O)NC(C)(C)C)c2ccsc2)cc1` (stereo not shown) [3B], for which the “increase in IC50” value was 5 fold.

The compound `O=C(Cn1nnc2ccccc21)N(Cc1ccsc1)c1ccc(-c2ccncc2)cc1` [5A] showed a fold more active of 2 fold. Turning to `O=C(Cn1nnc2ccccc21)N(Cc1ccsc1)c1ccc(NCc2ccccc2)cc1` [17A], the “increase in IC50” value stood at 10 fold. As to `CC(C)C(=O)Nc1ccc(N(Cc2ccsc2)C(=O)Cn2ccnn2)cc1` [19A], the “decrease in inhibitory potency between the analogs” value is “ten-fold”. As for `O=C(Cn1nnc2ccccc21)NCc1ccsc1` [22A, 2-(1H-Benzo[d][1,2,3]triazol-1-yl)-N-(thiophen-3-ylmethyl)acetamide], the “increase in IC50” value is “greater than 200 fold”.
